Reference: paper PMC8072580, “Predicting Pharmacokinetic Properties of Potential Anticancer Agents via Their Chromatographic Behavior on Different Reversed Phase Materials” (International Journal of Molecular Sciences, 2021)
Where two headings read alike, the source gives them in different places.

Experiments:
human cancer cells = system: human cancer cells; design: method as in PMID 31864156, PMID 16545495, PMID 25528370; conditions: cited from earlier work
[1] = Micellar liquid chromatography (MLC), ODS-2 column, Brij 35 effluent: chromatographic lipophilicity; format: physicochemical; conditions: pH 7.4, ODS-2 column, 25 °C
Description: There are several theories that describe the effect of the concentration of the surfactant in the effluent on the retention of the solute in MLC [23]. The following Foley’s equation is best known in lipophilicity studies:(2) 1/k=1/km+KAM/km[M] where [M] is the total concentration of the surfactant in the mobile phase minus CMC; KAM is the constant that describes solute-micelle binding; and km is the solute retention parameter at the micellar concentration of zero, i.e., when the concentration of the surfactant monomer is equal to CMC. The KAM and km parameters can be evaluated from the slope and intercept of the experimental 1/k vs. [M] relationships.
Equation (2) describes a linear dependence between decreasing retention and increasing micelle concentration. This equation is valid for aqueous solutions of surfactant or mobile phases with the same concentrations of the organic modifier. The micellar retention parameter, log km, is considered analogous to the log kw parameter evaluated in RPLC. According to the information presented above, this parameter is considered to be a lipophilicity descriptor, and Equation (2) is a simple way to indirectly determine the lipophilic properties of compounds. It is postulated that retention in micellar chromatography depends on hydrophobic (lipophilic), electronic, and steric features of the compounds in a similar way as has been noted concerning pharmacokinetic phenomena. The additional similarity results from the fact that the phospholipids, cholesterol, fatty acids, and triglycerides included in the extracellular and intracellular fluids also form micelles with proteins.
(§1) In our investigations, the micellar retention factors were used to calculate the log km parameters using Equation (2) (Table 2). For all of the compounds 1-19, the relationships of 1/k vs. [M] were obtained with very good linearity, confirming that Foley’s equation correctly describes the effect of the concentration of the surfactant in the effluent on the retention of the solute. In our studies, the micellar log km parameters for three pharmacologically active sets of compounds 1-6, 7-14, and 15-19 and the log k factors for solutes 15-19 obtained on IAM and end-capped ODS stationary phases were determined experimentally. All these retention factors, together with the log kw values for compounds 1-14 obtained in our earlier investigations on IAM and end-capped ODS stationary phases, were used as lipophilicity descriptors in the QSARs methodology to predict the pharmacokinetic descriptors of the compounds that were tested.
(§2) Shimadzu Vp (Shimadzu, Izabelin, Polska) liquid chromatographic system was used in HPLC measurements. It was equipped with an LC 10AT pump, SPD 10A UV–Vis detector, SCL 10A system controller, CTO-10 AS chromatographic oven, and Rheodyne injector valve with a 20 μL loop. As the stationary phases, 3 different revered-phase materials were applied: Spherisorb ODS-2 column, 125 × 4 mm i.d., 5 μm (Merck, Lublin, Poland), Regis IAM.PC.DD2 column, 100 × 4.6 mm i.d., 10 μm (Morton Grove, Illinois, USA), and Purosphere RP-18e column, 125 × 4 mm i.d., 5 μm (Merck, Lublin, Poland).
In the MLC technique with an ODS-2 column, buffered Brij 35 mixtures (0.15; 0.125, 0.10, and 0.075 mol/L) with 7% (v/v) addition of isopropanol were used as mobile phases. The buffer was prepared from 0.01 mol/L solutions of Na2HPO4 and citric acid, and the pH 7.4 value was fixed before mixing with an organic modifier. The flow rate was 1 mL/min. Buffered acetonitrile mixtures were used as effluents with the IAM column. Acetonitrile concentration, expressed as a volume fraction, was changed in the range of 0.2–0.5, with the constant step of 0.1. The flow rate was 1.3 mL/min. Acetonitrile concentration was changed in the range of 0.3–0.6 with the RP-18e column, with the constant step of 0.1 and flow rate of 0.1 mL/min. As solutes tested there were used 19 newly designed structurally related compounds. […]

[2] = design: method as in PMID 31864156; conditions: end-capped ODS column, aqueous acetonitrile; cited from earlier work
Danio rerio = system: Danio rerio; design: method as in PMID 33390035; conditions: cited from earlier work
[3] = design: method as in PMID 31864156; conditions: IAM.PC.DD2 column, buffered acetonitrile; cited from earlier work
[4] = Immobilized artificial membrane (IAM.PC.DD2) chromatography: log kw,IAM; format: physicochemical; conditions: IAM.PC.DD2 column, buffered acetonitrile 0.2-0.5, 25 °C
Description: as §1, §2
(§3) In the MLC technique with an ODS-2 column, buffered Brij 35 mixtures (0.15; 0.125, 0.10, and 0.075 mol/L) with 7% (v/v) addition of isopropanol were used as mobile phases. The buffer was prepared from 0.01 mol/L solutions of Na2HPO4 and citric acid, and the pH 7.4 value was fixed before mixing with an organic modifier. The flow rate was 1 mL/min. Buffered acetonitrile mixtures were used as effluents with the IAM column. Acetonitrile concentration, expressed as a volume fraction, was changed in the range of 0.2–0.5, with the constant step of 0.1. The flow rate was 1.3 mL/min. Acetonitrile concentration was changed in the range of 0.3–0.6 with the RP-18e column, with the constant step of 0.1 and flow rate of 0.1 mL/min. As solutes tested there were used 19 newly designed structurally related compounds. Samples were dissolved in acetonitrile c.a. 0.005 mg/mL. The compounds were detected under UV light at λmax 254 nm. All measurements were carried out at a constant temperature (25 °C). The dead time values were measured from non-retained compound (e.g., sodium chloride) peaks. All reported k values are the average of at least 3 independent measurements.

[5] = End-capped ODS (RP-18e) column chromatography: log kw,ODS; format: physicochemical; conditions: acetonitrile 0.3-0.6, 25 °C
Description: as §1, §2, §3

[6] = 0.075 M Brij 35, 7% isopropanol
[7] = 0.125 M Brij 35, 7% isopropanol

Row | Compound | antiproliferative effects in cancer cells compared with normal cells (human cancer cells) | k (MLC retention factor) [1, 6] | k (MLC retention factor) ([1]; 0.1 M Brij 35, 7% isopropanol) | k (MLC retention factor) [1, 7] | k (MLC retention factor) ([1]; 0.15 M Brij 35, 7% isopropanol) | log kw,ODS [2] | safety for early life stages of Danio rerio compared with pemetrexed (Danio rerio) | log kw,IAM [3] | log kw,IAM [4] | log kw,ODS [5]
1 | Cc1ccccc1N1CCn2c1nnc(C(F)(F)F)c2=O [Compound 8] | clearly higher antiproliferative effects in cancer cells than in normal cells | 6.50 | 5.97 | 5.52 | 5.28 | 1.81 [19] | safer for the early life stages of Danio rerio than pemetrexed | 0.76 [19] | – | –
2 | CCOC(=O)c1nnc2n(c1=O)CCN2c1ccccc1 [Compound 15] | – | 2.09 | 1.90 | 1.81 | 1.84 | – | – | – | 0.48 | 1.21
3 | O=c1c(C(F)(F)F)nnc2n1CCN2c1ccccc1 [Compound 7] | – | 14.11 | 12.22 | 10.72 | 10.02 | 1.92 [19] | safer for the early life stages of Danio rerio than pemetrexed | 0.94 [19] | – | –
4 | CCOC(=O)c1nnc2n(c1=O)CCN2c1ccc(Cl)c(Cl)c1 [Compound 19] | clearly higher antiproliferative effects in cancer cells than in normal cells | 24.39 | 18.98 | 14.97 | 14.81 | – | – | – | 3.36 | 3.24
5 | CCOC(=O)c1nnc2n(c1=O)CCN2c1ccc(Cl)cc1 [Compound 18] | – | 9.94 | 8.48 | 7.53 | 7.75 | – | – | – | 1.12 | 1.92
6 | CCOC(=O)c1nnc2n(c1=O)CCN2c1cccc(Cl)c1 [Compound 17] | clearly higher antiproliferative effects in cancer cells than in normal cells | 10.12 | 8.72 | 8.00 | 8.00 | – | – | – | 1.73 | 2.62
7 | CCOC(=O)c1nnc2n(c1=O)CCN2c1ccc(C)cc1 [Compound 16] | – | 4.49 | 4.04 | 3.81 | 3.75 | – | – | – | 1.93 | 2.80
